A value given as a limit tells only on which side of the number the result lay.

Series [1] addresses T1, Glycogen synthase kinase-3 beta (Homo sapiens, UniProt P49841). In words: biochemical. In kind it is cell-based, Sf9.
The target in series [2] is Cyclin-dependent kinase 5/CDK5 activator 1 (Homo sapiens, UniProt Q00535). In words: biochemical. In kind it is cell-based, Sf9.
Series [3] has as its target Dual specificity protein kinase CLK4 (Homo sapiens, UniProt Q9HAZ1). In words: biochemical.
Series [4] concerns the target T2, Dual specificity tyrosine-phosphorylation-regulated kinase 4 (Homo sapiens, UniProt Q9NR20).
T2 sequence (Q9NR20 whole entry): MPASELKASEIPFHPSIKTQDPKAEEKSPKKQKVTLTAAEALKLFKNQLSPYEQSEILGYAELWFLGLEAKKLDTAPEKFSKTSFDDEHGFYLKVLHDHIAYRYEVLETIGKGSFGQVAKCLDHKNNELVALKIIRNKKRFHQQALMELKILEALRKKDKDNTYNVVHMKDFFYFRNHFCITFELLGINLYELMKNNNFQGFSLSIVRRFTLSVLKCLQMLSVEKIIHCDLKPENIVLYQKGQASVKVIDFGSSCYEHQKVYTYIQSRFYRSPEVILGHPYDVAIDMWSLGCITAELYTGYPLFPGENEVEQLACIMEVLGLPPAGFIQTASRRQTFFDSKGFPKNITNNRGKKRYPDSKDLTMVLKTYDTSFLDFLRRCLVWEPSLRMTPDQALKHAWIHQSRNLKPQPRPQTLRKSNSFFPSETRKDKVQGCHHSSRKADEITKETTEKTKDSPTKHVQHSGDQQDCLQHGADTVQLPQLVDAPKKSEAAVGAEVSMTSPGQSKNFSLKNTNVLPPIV
Briefly: biochemical. The format is cell-based, Sf9.

Series [5] concerns the target T3, Dual specificity tyrosine-phosphorylation-regulated kinase 2 (Homo sapiens, UniProt Q92630).
T3 sequence (Q92630 whole entry): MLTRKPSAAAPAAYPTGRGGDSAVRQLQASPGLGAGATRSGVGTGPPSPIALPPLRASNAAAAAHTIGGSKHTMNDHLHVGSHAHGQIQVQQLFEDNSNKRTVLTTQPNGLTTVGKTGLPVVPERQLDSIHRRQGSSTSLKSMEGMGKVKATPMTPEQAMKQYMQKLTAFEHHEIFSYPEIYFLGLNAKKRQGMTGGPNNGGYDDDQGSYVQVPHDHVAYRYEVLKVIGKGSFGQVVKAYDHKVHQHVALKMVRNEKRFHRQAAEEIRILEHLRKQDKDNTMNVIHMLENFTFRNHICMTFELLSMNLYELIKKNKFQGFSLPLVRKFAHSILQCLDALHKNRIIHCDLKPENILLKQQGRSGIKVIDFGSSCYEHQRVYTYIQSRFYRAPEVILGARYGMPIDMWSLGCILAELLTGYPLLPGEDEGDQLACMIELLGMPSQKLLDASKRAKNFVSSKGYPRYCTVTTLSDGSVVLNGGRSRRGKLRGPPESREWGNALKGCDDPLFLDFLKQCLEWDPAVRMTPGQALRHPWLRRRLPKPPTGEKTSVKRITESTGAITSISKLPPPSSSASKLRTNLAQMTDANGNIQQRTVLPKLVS
In words: biochemical. The format is cell-based, Sf9.

Series [6] concerns the target T1, Glycogen synthase kinase-3 beta.
For series [7], the target named is T4, Dual specificity tyrosine-phosphorylation-regulated kinase 3 (Homo sapiens, UniProt O43781).
T4 sequence (O43781 whole entry): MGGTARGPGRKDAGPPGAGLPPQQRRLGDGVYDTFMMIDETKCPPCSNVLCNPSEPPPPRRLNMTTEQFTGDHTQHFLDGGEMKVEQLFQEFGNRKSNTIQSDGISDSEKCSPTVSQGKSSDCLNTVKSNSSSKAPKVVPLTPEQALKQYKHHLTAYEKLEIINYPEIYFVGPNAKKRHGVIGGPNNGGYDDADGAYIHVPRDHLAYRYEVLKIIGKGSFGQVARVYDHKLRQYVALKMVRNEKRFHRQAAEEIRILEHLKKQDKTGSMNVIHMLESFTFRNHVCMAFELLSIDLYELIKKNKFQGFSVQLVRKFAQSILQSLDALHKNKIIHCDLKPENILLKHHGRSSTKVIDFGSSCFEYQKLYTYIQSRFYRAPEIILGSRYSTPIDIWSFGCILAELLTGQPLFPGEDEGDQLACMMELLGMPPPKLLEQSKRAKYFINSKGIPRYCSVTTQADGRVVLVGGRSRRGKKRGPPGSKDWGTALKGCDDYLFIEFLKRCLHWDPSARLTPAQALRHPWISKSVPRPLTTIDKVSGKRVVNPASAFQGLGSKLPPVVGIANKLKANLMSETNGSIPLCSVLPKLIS
In words: biochemical. The format is cell-based, Sf9.

Series [8] addresses Casein kinase I isoform epsilon (Homo sapiens, UniProt P49674). In words: biochemical. The format is cell-based, Sf9.
Series [9] in a line: in vitro. The settings on record: mouse, ht-22.
Series [10] concerns the target Dual specificity protein kinase CLK3 (Homo sapiens, UniProt P49761). Briefly: biochemical. The format is cell-based, Sf9.
The target of series [11] is T5, Dual specificity protein kinase CLK1 (Homo sapiens, UniProt P49759). In words: biochemical. In kind it is cell-based, Sf9.
T5 sequence (P49759 whole entry): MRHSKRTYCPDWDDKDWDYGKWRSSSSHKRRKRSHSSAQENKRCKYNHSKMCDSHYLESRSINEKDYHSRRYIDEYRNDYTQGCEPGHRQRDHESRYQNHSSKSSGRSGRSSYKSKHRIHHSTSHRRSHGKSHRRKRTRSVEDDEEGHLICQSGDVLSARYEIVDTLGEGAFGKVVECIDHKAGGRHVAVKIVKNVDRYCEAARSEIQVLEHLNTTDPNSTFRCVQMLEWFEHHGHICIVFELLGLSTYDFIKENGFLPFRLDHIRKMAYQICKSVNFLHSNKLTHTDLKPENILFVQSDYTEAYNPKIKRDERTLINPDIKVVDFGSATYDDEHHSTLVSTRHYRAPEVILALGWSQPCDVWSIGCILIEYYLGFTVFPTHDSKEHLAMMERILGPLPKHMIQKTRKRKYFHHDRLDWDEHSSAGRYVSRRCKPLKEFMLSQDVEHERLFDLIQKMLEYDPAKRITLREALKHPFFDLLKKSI
Series [12] deals with Dual specificity protein kinase CLK2 (Homo sapiens, UniProt P49760). Briefly: biochemical.
Sequence of Dual specificity protein kinase CLK2 (P49760 whole entry): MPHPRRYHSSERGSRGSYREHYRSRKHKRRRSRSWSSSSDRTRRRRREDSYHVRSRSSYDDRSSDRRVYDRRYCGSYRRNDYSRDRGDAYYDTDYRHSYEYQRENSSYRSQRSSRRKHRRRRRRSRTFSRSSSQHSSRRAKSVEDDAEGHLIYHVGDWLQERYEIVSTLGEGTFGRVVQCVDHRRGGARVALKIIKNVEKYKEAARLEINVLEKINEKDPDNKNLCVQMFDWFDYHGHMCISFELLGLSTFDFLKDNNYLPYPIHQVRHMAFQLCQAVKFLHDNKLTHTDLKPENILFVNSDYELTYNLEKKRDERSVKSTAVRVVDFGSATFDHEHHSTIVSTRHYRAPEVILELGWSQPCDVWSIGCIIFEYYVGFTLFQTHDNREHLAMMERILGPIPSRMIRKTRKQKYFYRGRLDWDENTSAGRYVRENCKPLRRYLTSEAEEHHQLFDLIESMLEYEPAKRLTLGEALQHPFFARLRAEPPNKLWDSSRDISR
In series [13] the target is T5, Dual specificity protein kinase CLK1.
Series [14] has the same target. In words: biochemical. In kind it is cell-based, Sf9. The settings on record: read-out: IC50.

Sequence of Cyclin-dependent kinase 5/CDK5 activator 1 (Q00535 whole entry): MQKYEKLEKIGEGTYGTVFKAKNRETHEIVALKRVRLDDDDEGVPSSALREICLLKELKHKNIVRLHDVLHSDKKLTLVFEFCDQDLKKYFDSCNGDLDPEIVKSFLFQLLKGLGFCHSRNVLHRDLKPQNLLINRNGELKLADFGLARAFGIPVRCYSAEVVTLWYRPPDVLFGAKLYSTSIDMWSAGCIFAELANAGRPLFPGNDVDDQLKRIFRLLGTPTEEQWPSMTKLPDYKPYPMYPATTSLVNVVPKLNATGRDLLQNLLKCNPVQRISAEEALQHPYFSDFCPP
Sequence of Cyclin-dependent kinase 5/CDK5 activator 1 (Q15078 whole entry, further chain): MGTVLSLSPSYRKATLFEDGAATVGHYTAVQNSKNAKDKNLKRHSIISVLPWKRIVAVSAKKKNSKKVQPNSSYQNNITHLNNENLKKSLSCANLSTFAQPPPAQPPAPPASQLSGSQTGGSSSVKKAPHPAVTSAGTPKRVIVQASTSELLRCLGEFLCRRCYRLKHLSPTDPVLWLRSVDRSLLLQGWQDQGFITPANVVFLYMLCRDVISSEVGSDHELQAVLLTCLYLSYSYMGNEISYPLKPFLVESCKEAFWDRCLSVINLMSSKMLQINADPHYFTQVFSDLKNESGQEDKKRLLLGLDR
T1 sequence (P49841 whole entry): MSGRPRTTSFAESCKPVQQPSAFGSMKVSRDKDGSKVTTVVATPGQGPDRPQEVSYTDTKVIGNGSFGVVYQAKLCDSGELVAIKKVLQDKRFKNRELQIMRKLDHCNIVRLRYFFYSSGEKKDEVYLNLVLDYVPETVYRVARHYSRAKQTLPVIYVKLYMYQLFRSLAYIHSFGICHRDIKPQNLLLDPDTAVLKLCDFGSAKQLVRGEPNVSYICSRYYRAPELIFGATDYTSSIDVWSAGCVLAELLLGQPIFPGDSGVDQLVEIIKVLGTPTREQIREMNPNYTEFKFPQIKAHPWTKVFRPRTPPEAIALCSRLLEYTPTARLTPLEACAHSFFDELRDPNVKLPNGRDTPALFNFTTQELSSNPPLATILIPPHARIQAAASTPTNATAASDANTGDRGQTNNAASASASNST
Sequence of Casein kinase I isoform epsilon (P49674 whole entry, canonical isoform): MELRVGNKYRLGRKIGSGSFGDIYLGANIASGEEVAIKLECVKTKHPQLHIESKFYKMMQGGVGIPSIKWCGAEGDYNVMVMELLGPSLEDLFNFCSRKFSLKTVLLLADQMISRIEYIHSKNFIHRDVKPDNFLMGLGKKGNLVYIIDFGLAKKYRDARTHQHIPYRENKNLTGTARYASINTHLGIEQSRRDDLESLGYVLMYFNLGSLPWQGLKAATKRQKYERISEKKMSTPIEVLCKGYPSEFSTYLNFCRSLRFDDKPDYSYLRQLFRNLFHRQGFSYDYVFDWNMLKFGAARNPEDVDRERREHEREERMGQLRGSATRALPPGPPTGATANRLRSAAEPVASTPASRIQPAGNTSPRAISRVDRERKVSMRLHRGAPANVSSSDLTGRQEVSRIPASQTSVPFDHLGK
Sequence of Dual specificity protein kinase CLK4 (Q9HAZ1 whole entry): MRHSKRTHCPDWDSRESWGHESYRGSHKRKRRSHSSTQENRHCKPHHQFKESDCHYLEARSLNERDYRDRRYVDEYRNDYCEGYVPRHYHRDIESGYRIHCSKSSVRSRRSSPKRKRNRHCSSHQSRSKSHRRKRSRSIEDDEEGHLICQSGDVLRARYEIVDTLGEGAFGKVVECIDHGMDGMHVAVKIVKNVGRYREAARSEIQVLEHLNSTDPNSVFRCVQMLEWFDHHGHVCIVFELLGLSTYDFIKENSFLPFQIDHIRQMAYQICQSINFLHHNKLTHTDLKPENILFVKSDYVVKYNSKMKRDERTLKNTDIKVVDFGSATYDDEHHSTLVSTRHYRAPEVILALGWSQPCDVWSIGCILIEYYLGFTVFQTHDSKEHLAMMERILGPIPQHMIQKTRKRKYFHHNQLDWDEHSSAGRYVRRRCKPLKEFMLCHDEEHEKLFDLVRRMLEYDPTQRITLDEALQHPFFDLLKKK
Sequence of Dual specificity protein kinase CLK3 (P49761 whole entry): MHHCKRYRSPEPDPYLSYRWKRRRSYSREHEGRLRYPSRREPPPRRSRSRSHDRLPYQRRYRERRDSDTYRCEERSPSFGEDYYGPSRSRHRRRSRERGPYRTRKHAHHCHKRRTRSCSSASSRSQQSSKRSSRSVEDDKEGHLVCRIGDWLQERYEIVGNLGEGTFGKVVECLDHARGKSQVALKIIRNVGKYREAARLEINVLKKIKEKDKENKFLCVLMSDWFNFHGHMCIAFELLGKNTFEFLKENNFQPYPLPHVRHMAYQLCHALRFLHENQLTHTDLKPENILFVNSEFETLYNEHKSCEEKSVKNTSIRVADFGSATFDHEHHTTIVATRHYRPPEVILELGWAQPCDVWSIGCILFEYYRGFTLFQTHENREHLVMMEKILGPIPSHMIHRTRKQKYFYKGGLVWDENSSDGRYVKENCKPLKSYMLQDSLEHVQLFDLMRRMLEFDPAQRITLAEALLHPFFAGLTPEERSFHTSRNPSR

A word on the IC50: it is the concentration that inhibits the measured activity by half. As a reminder, the Kd is a measure of binding affinity in units of concentration. Turning to `CCOC(=O)c1c(/C(C#N)=C\N)c2ccc(Cl)c(Cl)c2n1C`, the IC50 was above 10 µM in series [1]; above 10 µM in [2]; 0.0148 µM in [3]; above 10 µM in [4]; above 10 µM in [5]; above 10 µM in [7]. Moreover, the IC50 in series [8] is above 10 µM. Further, the Kd in series [6] is above 10 µM. This compound also returned an IC50 at 48 h in series [9] above 100 µM.

Turning to `O=C1NC(Nc2ccccc2)=N/C1=C\c1ccc2c(c1)OCO2`, the IC50 in [1] was above 10 µM; in series [3], 0.0215 µM; in [4], 0.817 µM; in [8] it was above 10 µM; in series [10], 2.17 µM. Moreover, the dissociation constant Kd in series [6] was 0.561 µM. The IC50 at 48 h in series [9] was above 100 µM.

On to `c1ccc(CNc2nc(Nc3cc(C4CC4)[nH]n3)c3sccc3n2)cc1`, for which the IC50 in series [4] is above 10 µM; in series [5] it was 4.73 µM; in series [11], 0.0761 µM; in [7], 4.24 µM; in series [12], 0.0828 µM; in [8], 8.36 µM. In addition, the figures for the IC50 in series [10] and in [14] were 1.91 µM and 0.0562 µM, respectively. Besides, the affinity in series [13], expressed as Kd, was 0.0102 µM. In [9], this compound returned an IC50 at 48 h of 54 µM.

In the case of `Cc1nc2ccc(-c3cc(N)nc(N)c3)nc2n1C(C)C`, the IC50 in series [1] was above 10 µM; in series [2], 0.273 µM; in series [3], 0.0095 µM; in [4], 0.171 µM; in series [5] it was 0.01 µM; in series [7] it was above 10 µM. Moreover, the IC50 in [12] stood at 0.0365 µM; in series [8], 2.9 µM; in series [10], 1.19 µM. This compound also came in with a Kd in series [6] of 9.59 µM. In series [9], this compound had an IC50 at 48 h of 5.8 µM.

As for `CC(C)Oc1ccc(F)c(-c2cnc(N)c(C(=O)Nc3cnccc3N3CCC[C@@H](C(=O)O)C3)n2)c1`, the half-inhibitory concentration (IC50) in series [2] is 0.47 µM; in series [3], 0.0211 µM; in series [4], 7.33 µM; in series [5], 1.58 µM; in series [11], 0.0137 µM; in series [7] it was 5.6 µM. For the same compound, the half-maximal inhibitory concentration (IC50) was 0.0059 µM in series [12], 0.63 µM in series [8], 2.48 µM in [10] and 0.0283 µM in series [14]. Further, in series [13], the Kd stood at 0.000254 µM. It took 16.3 µM to reach half-maximal inhibition in series [9] (IC50 at 48 h).

`Cc1ccc(-n2cc(COc3cccc4cnc(Nc5cccc(Cl)c5)nc34)nn2)c([N+](=O)[O-])c1`: the IC50 in series [1], in [2], in [4], in series [7] and in [8] was above 10 µM throughout. Moreover, the Kd in series [6] is above 10 µM. Besides, half-maximal inhibition in series [9] (IC50 at 48 h) was put at 100 µM.

`O=C1NC(NC23CC4CC(CC(C4)C2)C3)=N/C1=C\c1ccc2ncsc2c1`: the IC50 is 4.16 µM in series [1]; 0.243 µM in series [2]; 0.117 µM in series [4]; above 10 µM in series [8]; 0.812 µM in series [10]. Binding in series [6] was put at a Kd of 1.76 µM. In series [9], this compound had an IC50 at 48 h of 6.3 µM.

On to `CN1Cc2nn(C)c(C#N)c2-c2cnc3[nH]cc(c3c2)-c2cn(nc2C(F)(F)F)CCCC1=O`, for which the IC50 is above 10 µM in [1]; above 10 µM in series [2]; above 10 µM in series [4]; 8.78 µM in series [5]; above 10 µM in series [7]; 6.71 µM in [12]. The IC50 in series [8] and in [10] was above 10 µM each time. The compound further showed a Kd in [6] of 7.29 µM. Also, the IC50 at 48 h in [9] turned out to be 51.3 µM.

In the case of `COc1ccc2nc3ccc(OC)cc3c(SCCCN)c2c1`, the half-inhibitory concentration (IC50) in series [1] was above 10 µM; in series [2], above 10 µM; in series [3] it was 0.452 µM; in [4], 0.584 µM; in series [12] it was 2.67 µM; in series [8] it was above 10 µM. Moreover, in series [10], the IC50 worked out at 7.39 µM. This compound also gave a Kd in series [6] of 2.71 µM. Further, in series [9], it took 14.5 µM to reach half-maximal inhibition (IC50 at 48 h).

Take `O=C(Nc1ccc2[nH]ncc2c1)c1csc(Nc2ccccc2)n1`: the IC50 is above 10 µM in series [2]; 0.123 µM in series [3]; above 10 µM in series [4]; 0.439 µM in series [5]; 0.0896 µM in [11]; 5.45 µM in [7]. The IC50 in series [12] was 0.082 µM; in series [8] it was above 10 µM; in series [10], above 10 µM; in series [14], 0.507 µM. This compound yielded a Kd in series [13] of 0.2 µM. This compound came in with an IC50 at 48 h in series [9] above 100 µM.

Consider `Cn1cc(-c2ccc3cnc(NC(=O)C4CCN(S(C)(=O)=O)CC4)cc3c2)cn1`, for which the IC50 in [2] was 1.79 µM; in series [3], 0.0141 µM; in series [4] it was 0.612 µM; in [5], 0.0372 µM; in [11] it was 0.0377 µM; in series [7], 0.209 µM. The IC50 was 0.0896 µM in [12], above 10 µM in [8], 0.681 µM in [10] and 0.0206 µM in series [14]. This compound came in with a Kd in [13] of 0.00062 µM. The IC50 at 48 h in series [9] came to 5.9 µM.

On to `CC(C)CN1CCC(C(=O)Nc2cc3cc(-c4cnn(C)c4)ccc3cn2)CC1`, for which the IC50 was 1.03 µM in series [2]; 0.0238 µM in series [3]; 2.48 µM in series [4]; 0.215 µM in series [5]; 0.084 µM in [11]; 0.683 µM in series [7]. Further, the IC50 in [12] was 0.38 µM; in series [8], above 10 µM; in [10] it was 2.12 µM; in series [14] it was 0.015 µM. In addition, the Kd in series [13] came out at 0.000968 µM. Also, the IC50 at 48 h in series [9] came to 4.9 µM.

In the case of `CCN1CCN(Cc2ccc(Nc3ncc(F)c(-c4cc(F)c5nc(C)n(C(C)C)c5c4)n3)nc2)CC1` [ABEMACICLIB], the IC50 in [3] is 0.0899 µM; in [4], 3.56 µM; in series [11], 0.0647 µM; in series [7], 0.0206 µM; in series [12], 0.185 µM; in [8], above 10 µM. Further, the IC50 was 7.48 µM in series [10] and 0.0814 µM in series [14]. This compound also came in with a dissociation constant Kd in series [13] of 0.000851 µM. Also, the IC50 at 48 h in [9] is 12.2 µM.

`c1cc(OCCN2CCCCC2)cc(-c2n[nH]c3ccc(-c4nc[nH]n4)cc23)c1` [CC-401]: the IC50 in series [2] was above 10 µM; in series [3], 0.154 µM; in series [4], above 10 µM; in series [5], 7.92 µM; in [11], 0.441 µM; in series [7], 4.31 µM. Moreover, the IC50 was 0.405 µM in [12], 1.51 µM in [8], above 10 µM in series [10] and 2.85 µM in series [14]. For the same compound, the Kd in series [13] was 0.00597 µM. The IC50 at 48 h in [9] was found to be 51.7 µM.

The record behind these values is ChEMBL document CHEMBL5247649, “Comparative Efficacy and Selectivity of Pharmacological Inhibitors of DYRK and CLK Protein Kinases” (J Med Chem, 2023).
